Target: T1, PAK4 (Homo sapiens, UniProt O96013)
T1 construct: purchased Thermo Fisher Scientific (Life Technologies) SelectScreen
Test: SelectScreen Z'LYTE
Type: biochemical
Procedure, shortened: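 Percent values come from Thermo SelectScreen profiling of NU5455, combining activity and binding assays. CSF1R was run in Z'LYTE format at Km app ATP, and CAMK1 in Adapta format with ATP listed at 10.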

T1 sequence (O96013 whole entry): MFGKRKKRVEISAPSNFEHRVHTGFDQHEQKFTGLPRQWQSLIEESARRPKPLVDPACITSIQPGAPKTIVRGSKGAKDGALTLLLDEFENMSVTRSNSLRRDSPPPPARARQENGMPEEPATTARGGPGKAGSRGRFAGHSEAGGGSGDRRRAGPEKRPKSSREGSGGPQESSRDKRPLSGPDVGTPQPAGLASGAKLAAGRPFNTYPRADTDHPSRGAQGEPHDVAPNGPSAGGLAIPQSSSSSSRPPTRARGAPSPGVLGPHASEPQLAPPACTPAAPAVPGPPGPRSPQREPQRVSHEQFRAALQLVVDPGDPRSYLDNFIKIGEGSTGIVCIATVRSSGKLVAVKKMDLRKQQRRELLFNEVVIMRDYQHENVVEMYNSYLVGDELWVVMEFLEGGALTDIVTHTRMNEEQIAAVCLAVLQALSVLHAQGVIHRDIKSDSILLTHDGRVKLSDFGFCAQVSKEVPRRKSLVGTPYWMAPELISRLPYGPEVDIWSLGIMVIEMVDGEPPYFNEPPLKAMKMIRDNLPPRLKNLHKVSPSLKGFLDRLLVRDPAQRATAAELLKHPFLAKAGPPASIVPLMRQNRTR

Compound: CN(C(=O)CN1CCOCC1)c1ccc2sc3c(-c4cccc5c(=O)cc(N6CC7CCC(C6)O7)oc45)cccc3c2c1 [NU5455]
- inhibition at 1 µM: -3.3%

Reference: article PMC6934184, “Selective DNA-PKcs inhibition extends the therapeutic index of localized radiotherapy and chemotherapy” (The Journal of Clinical Investigation, 2019)
